Experimental data: ChEMBL document CHEMBL1159218, “Metabolites of the Palauan sponge Axinyssa aplysinoides” (J Nat Prod, 1995)
Calls of active or inactive are those of the source. The rule behind the calls is not given here.

Key:
Bacillus subtilis = assay: Antibacterial activity against Bacillus subtilis at 10 ug/disk by disc-diffusion assay; format: functional, organism-based
Staphylococcus aureus = assay: Antibacterial activity against Staphylococcus aureus at 25 ug/disk by disc-diffusion assay; format: functional, organism-based

In the case of `CC(C)[C@H]1CC[C@@H](C)C2=CC[C@](C)(NC=O)C[C@@H]21` (relative stereo), the Activity (Bacillus subtilis) is reported as “Active” and the Activity (Staphylococcus aureus) is reported as “Active”.
